pIC50: −log10 of the molar value.
Tests used:
[1] = target: C-X-C chemokine receptor type 4 (Homo sapiens, UniProt P61073); experiment: Antagonist activity at CXCR4 (unknown origin) expressed in U2OS cells cotransfected with beta-arrestin/TEV protease fusion protein and beta-lactamase assessed as inhibition of SDF1-alpha-induced beta arrestin2 recruitment preincubated for 30 mins followed by SDF1-alpha stimulation and measured after 5 hrs by FRET based fluorescence/Tango assay
[2] = target: T1, C-X-C chemokine receptor type 2 (Homo sapiens, UniProt P25025); experiment: Antagonist activity at CXCR2 (unknown origin) expressed in U2OS cells cotransfected with beta-arrestin/TEV protease fusion protein and beta-lactamase assessed as inhibition of CXCL8-induced beta arrestin2 recruitment preincubated for 30 mins followed by CXCL8 stimulation and measured after 5 hrs by FRET based fluorescence/Tango assay; format: cell-based
T1 sequence (P25025 whole entry): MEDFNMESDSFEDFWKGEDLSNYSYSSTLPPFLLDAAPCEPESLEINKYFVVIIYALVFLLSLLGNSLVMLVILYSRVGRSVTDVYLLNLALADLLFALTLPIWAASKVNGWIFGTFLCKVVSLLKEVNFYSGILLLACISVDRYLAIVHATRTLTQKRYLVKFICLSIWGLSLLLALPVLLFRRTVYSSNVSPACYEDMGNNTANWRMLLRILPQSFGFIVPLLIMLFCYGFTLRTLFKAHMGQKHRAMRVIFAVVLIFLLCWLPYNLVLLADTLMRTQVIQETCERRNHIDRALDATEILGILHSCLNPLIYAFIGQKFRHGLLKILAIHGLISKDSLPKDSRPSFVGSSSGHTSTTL

Sequence of C-X-C chemokine receptor type 4 (P61073 whole entry, the tested form may be a part): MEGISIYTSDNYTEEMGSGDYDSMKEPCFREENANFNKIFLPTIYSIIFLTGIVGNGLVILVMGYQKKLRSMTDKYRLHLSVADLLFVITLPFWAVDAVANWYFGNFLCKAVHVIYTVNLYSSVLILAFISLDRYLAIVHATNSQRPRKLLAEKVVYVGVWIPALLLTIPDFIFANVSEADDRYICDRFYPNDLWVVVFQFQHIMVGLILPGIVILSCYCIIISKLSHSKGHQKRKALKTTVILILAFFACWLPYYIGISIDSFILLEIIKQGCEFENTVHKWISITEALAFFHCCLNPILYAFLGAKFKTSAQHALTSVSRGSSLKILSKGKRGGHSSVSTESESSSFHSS

SMILES | pIC50 [1] | pIC50 [2]
CNC(=O)c1c(NC(=S)Nc2ccccc2)sc2c1C(C)CCC2 (centres undefined) | < 5.00 | < 5.00
CC(C)(C)OC(=O)c1c(NC(=S)Nc2ccccc2)sc2c1CCOC2 | < 4.52 | 5.64
CC(C)(C)OC(=O)c1c(NC(=S)Nc2ccc(OC(F)(F)F)cc2)sc2c1CCOC2 | < 4.52 | 5.80
O=C(Nc1ccccc1)c1c(NC(=S)Nc2ccc(F)cc2)sc2c1CCOC2 | < 5.00 | < 5.00
C[C@H](NC(=S)Nc1sc2c(c1C(=O)OC(C)(C)C)CCOC2)c1ccccc1 | < 4.52 | 5.62
CCOC(=O)c1c(NC(=S)Nc2ccc(N(C)C)cc2)sc2c1C(C)CCC2 (centres undefined) | < 5.00 | 5.41
CC(C)(C)OC(=O)c1c(NC(=S)Nc2ccccc2)sc2c1CCCO2 | < 5.00 | 5.39
CCOC(=O)c1c(NC(=S)Nc2ccc(C(C)(C)C)cc2)sc2c1C(C)CCC2 (centres undefined) | < 5.00 | 5.15
CN1CCc2c(sc(NC(=S)Nc3ccccc3)c2C(=O)OC(C)(C)C)C1 | < 5.00 | < 5.00
CCOC(=O)c1c(NC(=S)Nc2cnccn2)sc2c1C(C)CCC2 (centres undefined) | < 5.00 | < 5.00
CCOC(=O)c1c(NC(=S)NCc2ccccc2)sc2c1C(C)CCC2 (centres undefined) | < 4.70 | 5.17
CCOC(=O)c1c(NC(=S)NC(=O)c2ccccc2)sc2c1C(C)CCC2 (centres undefined) | < 5.00 | < 5.00
CC1CCCc2sc(NC(=S)Nc3ccc4c(c3)OC(F)(F)O4)c(C(=O)OC(C)(C)C)c21 (centres undefined) | < 5.00 | < 5.00
CC(C)(C)OC(=O)c1c(NC(=S)Nc2ccccc2)sc2c1CCCC2 | < 5.00 | 5.74
CCOC(=O)c1c(NC(=S)Nc2ccccc2O)sc2c1C(C)CCC2 (centres undefined) | < 5.00 | < 4.52

Now from value to compound:

pIC50 [1] | pIC50 [2] | SMILES
< 5.00 | 5.06 | CC(C)(C)OC(=O)c1c(NC(=S)Nc2ccccc2)sc2c1CCNC2
< 5.00 | < 4.52 | CC1CCCc2sc(NC(=S)Nc3ccccc3)c(C(N)=O)c21 (centres undefined)
4.93 | 5.68 | CCOC(=O)c1c(NC(=S)Nc2ccc(F)cc2)sc2c1C(C)CCC2 (centres undefined)
4.92 | 5.12 | CCOC(=O)c1c(NC(=S)Nc2ccccc2F)sc2c1C(C)CCC2 (centres undefined)
4.57 | 5.72 | CCOC(=O)c1c(NC(=S)Nc2ccc3c(c2)OC(F)(F)O3)sc2c1C(C)CCC2 (centres undefined)
4.84 | 5.70 | CCOC(=O)c1c(NC(=S)Nc2ccc(C(F)(F)F)cc2)sc2c1C(C)CCC2 (centres undefined)
4.92 | 5.60 | CC1CCCc2sc(NC(=S)Nc3ccccc3)c(C(=O)OC(C)(C)C)c21 (centres undefined)
